Test results from patent US20170303543A1, “AGRICHEMICAL COMPOSITIONS AND METHODS OF MAKING AND USING SAME” (priority 2014, published 2017).

tested on: Xanthomonas alfalfae; experiment: Alamar Blue assay for antimicrobial activity (FIG. 11); format: cell-based; settings: metallic zinc concentration as low as 50 PPM, components at relevant concentrations
Source text: FIG. 11A, FIG. 11B, FIG. 11C and FIG. 11D show a series of images illustrating Alamar Blue assay in accordance with the embodiments. […] It is to be understood that this disclosure is not limited to the foregoing particular embodiments described, as such may, of course, vary. It is also to be understood that the terminology used herein is for the purpose of describing particular embodiments only, and is not intended to be limiting, since the scope of the present disclosure will be limited only by the appended claims.

| SMILES | antimicrobial effect against Xanthomonas alfalfae |
| --- | --- |
| NC(N)=O [urea] | did not elicit similar effect |
| [Zn+2] [divalent zinc ion] | did not elicit similar effect |
| OO [hydrogen peroxide] | did not elicit similar effect |
